According to the supplement of paper PMC11061612:

Key:
Assay in all cases: combination Emax (second highest fraction inhibited in the dose matrix, 72 h); higher = more inhibition; extreme values may be limits of the assay
[1] = tested on: MDA-MB-415 (Breast Carcinoma)
Procedure, shortened: (§1)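 Cell lines in DMEM/F12 or RPMI with 10% FBS were plated in 1536-well plates, held 24 hours at 37°C, 5% CO2, then given two-drug dose matrices for 72 hours (DMSO typically 0.2%). Viability was read by CellTiter-Glo 2.0 luminescence and scaled as inhibition from 0 (vehicle wells) to 1 (blank wells). Combination Emax is the second-highest inhibition in the matrix; Bliss excess is observed combination effect minus expected EA + EB − EA·EB, EA and EB being single-agent effects.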

[2] = tested on: PL4 (Pancreatic Carcinoma)
Procedure, shortened: as §1

[3] = tested on: P32-ISH (Burkitt's Lymphoma)
Procedure, shortened: as §1

[4] = tested on: AM-38 (Glioblastoma)
Procedure, shortened: as §1

[5] = tested on: HT-1080 (Other Solid Carcinomas)
Procedure, shortened: as §1

[6] = tested on: T84 (Colorectal Carcinoma)
Procedure, shortened: as §1

[7] = tested on: NB1 (Neuroblastoma)
Procedure, shortened: as §1

[8] = tested on: RCC-JW (Kidney Carcinoma)
Procedure, shortened: as §1

[9] = tested on: SiHa (Cervical Carcinoma)
Procedure, shortened: as §1

[10] = tested on: MONO-MAC-6 (Acute Myeloid Leukemia)
Procedure, shortened: as §1

[11] = tested on: P30-OHK (B-Lymphoblastic Leukemia)
Procedure, shortened: as §1

[12] = tested on: Raji (Burkitt's Lymphoma)
Procedure, shortened: as §1

[13] = tested on: KALS-1 (Glioblastoma)
Procedure, shortened: as §1

[14] = tested on: LCLC-103H (Non-Small Cell Lung Carcinoma)
Procedure, shortened: as §1

[15] = tested on: MS-1 (Small Cell Lung Carcinoma)
Procedure, shortened: as §1

[16] = tested on: IA-LM (Non-Small Cell Lung Carcinoma)
Procedure, shortened: as §1

[17] = tested on: PA-TU-8988T (Pancreatic Carcinoma)
Procedure, shortened: as §1

[18] = tested on: MOLP-8 (Plasma Cell Myeloma)
Procedure, shortened: as §1

[19] = tested on: SUP-M2 (T-Cell Non-Hodgkin's Lymphoma)
Procedure, shortened: as §1

[20] = tested on: NCI-H3118 (Head and Neck Carcinoma)
Procedure, shortened: as §1

SMILES	combination Emax [1]	combination Emax [2]	combination Emax [3]	combination Emax [4]	combination Emax [5]	combination Emax [6]	combination Emax [7]	combination Emax [8]	combination Emax [9]	combination Emax [10]	combination Emax [11]	combination Emax [12]	combination Emax [13]	combination Emax [14]	combination Emax [15]	combination Emax [16]	combination Emax [17]	combination Emax [18]	combination Emax [19]	combination Emax [20]
CN(CCO)CC[C@H](CSc1ccccc1)Nc1ccc(S(=O)(=O)NC(=O)c2ccc(N3CCC([C@@H](O)c4ccccc4-c4ccc(Cl)cc4)CC3)cc2)cc1S(=O)(=O)C(F)(F)F [AZD4320] + Cn1cnc2c(F)c(Nc3ccc(Br)cc3Cl)c(C(=O)NOCCO)cc21 [Selumetinib] (first compound max 1 µM, 7x7, partner max 3 µM)	0.583	0.751	0.801	0.951	0.666	0.319	0.448	0.665	0.247	0.658	0.99	0.338	0.449	0.423	0.533	0.744	0.379	0.468	0.959	0.422
NC1(C(=O)N[C@@H](CCO)c2ccc(Cl)cc2)CCN(c2ncnc3[nH]ccc23)CC1 [Capivasertib] + COc1nnc2ccc(N3CCC(c4ccc(OCCN5CCN(C)C(=O)[C@H]5C)cc4)CC3)nn12 [AZD5153] (first compound max 10 µM, 7x7, partner max 1 µM)	0.9	0.613	1	0.448	0.388	0.367	0.885	0.601	0.644	1	1	0.646	0.682	0.559	0.931	0.317	0.798	1	0.915	0.537
CCN(CCO)CCCOc1ccc2c(Nc3cc(CC(=O)Nc4cccc(F)c4)[nH]n3)ncnc2c1 [AZD2811] + C=CCn1c(=O)c2cnc(Nc3ccc(N4CCN(C)CC4)cc3)nc2n1-c1cccc(C(C)(C)O)n1 [AZD1775] (first compound max 1 µM, partner max 1 µM)	0.131	0.554	1	0.377	0.331	0.645	0.869	0.161	0.164	0.958	0.846	0.667	0.841	0.546	0.848	0.166	0.678	0.76	1	0.807
COc1cccc(OCCCN)c1-c1cc(Nc2cnc(C#N)cn2)n[nH]1 [Prexasertib] + C[C@@H]1COCCN1C2=NC(=NC(=C2)C3(CC3)[S@](=N)(=O)C)C4=C5C=CNC5=NC=C4 [AZD6738] (first compound max 1 µM, 7x7, partner max 10 µM)	0.45	0.809	1	0.847	0.534	0.815	0.773	0.589	0.445	0.993	0.981	0.956	0.899	0.738	0.971	0.459	0.46	0.891	1	0.816
CN(CCO)CC[C@H](CSc1ccccc1)Nc1ccc(S(=O)(=O)NC(=O)c2ccc(N3CCC([C@@H](O)c4ccccc4-c4ccc(Cl)cc4)CC3)cc2)cc1S(=O)(=O)C(F)(F)F [AZD4320] + C1CN(CCC1(C(=O)N[C@@H](CCO)C2=CC=C(C=C2)Cl)N)C3=NC=NC4=C3C=CN4 [Capivasertib] (first compound max 1 µM, 7x7, partner max 3 µM)	0.968	0.497	0.318	0.561	0.5	0.136	0.689	0.615	0.171	0.597	0.992	0.177	0.485	0.238	0.52	0.376	0.22	0.254	0.365	0.0845
C=CCn1c(=O)c2cnc(Nc3ccc(N4CCN(C)CC4)cc3)nc2n1-c1cccc(C(C)(C)O)n1 [AZD1775] + C1CN(CCC1(C(=O)N[C@@H](CCO)C2=CC=C(C=C2)Cl)N)C3=NC=NC4=C3C=CN4 [Capivasertib] (first compound max 3 µM, partner max 3 µM)	0.764	0.737	1	0.702	0.561	0.785	0.69	0.619	0.505	0.95	0.947	0.977	0.766	0.626	0.911	0.413	0.851	0.91	1	0.947
